{"source": "paper PMC12128885", "about": "“Myricetin-bound crystal structure of the SARS-CoV-2 helicase NSP13 facilitates the discovery of novel natural inhibitors” (Acta Crystallographica Section D: Structural Biology, 2025)", "key": {"[1]": {"system": "Wuhan-like SARS-CoV-2 strain", "experiment": "microbe, parasite or virus in culture", "assay_type": "cell-based"}, "spike protein": {"target": "spike protein", "conditions": "read-out: Kd, spike protein; ref Su et al., 2021; Pan et al., 2023; Kuzikov et al., 2024; cited from earlier work"}, "main protease (NSP5)": {"system": "main protease (NSP5)", "conditions": "2024, cited from earlier work"}, "[2]": {"target": "RNA-dependent RNA polymerase (NSP12)", "design": "method as in Su et al., 2021; Pan et al., 2023; Kuzikov et al., 2024", "conditions": "ref Su et al., 2021; Pan et al., 2023; Kuzikov et al., 2024; cited from earlier work"}}, "note": "“Also recorded” adds a separate entry of the source. Where two headings read alike, the source gives them in different places.", "data": [{"smiles": "O=c1nc(NO)ccn1[C@@H]1O[C@H](CO)[C@@H](O)[C@H]1O", "note": "[NHC, β-D-N4-hydroxycytidine, reference compound]", "values": [{"measurement": "IC50", "setting": "[1]; Vero E6 cells, MOI 0.3, 48 h, compound 1 h before infection, read-out: IC50, infection assay (percentage of infected cells)", "value": 745, "unit": "nM"}]}, {"smiles": "O=C(/C=C/c1ccc(O)c(O)c1)O[C@@H]1C[C@](O)(C(=O)O)C[C@@H](O)[C@H]1O", "note": "[Chlorogenic acid, (1S,3R,4R,5R)-3-[(E)-3-(3,4-Dihydroxyphenyl)prop-2-enoyl]oxy-1,4,5-trihydroxycyclohexane-1-carboxylic acid]", "values": [{"measurement": "IC50, infection assay (percentage of infected cells)", "setting": "[1]; Vero E6 cells, MOI 0.3, 48 h, compound 1 h before infection", "value": "no significant effect; also recorded: no significant inhibition"}]}, {"smiles": "O=c1c(O)c(-c2cc(O)c(O)c(O)c2)oc2cc(O)cc(O)c12", "note": "[Myricetin, 3,5,7-Trihydroxy-2-(3,4,5-trihydroxyphenyl)chromen-4-one]", "values": [{"measurement": "Kd", "setting": "spike protein", "value": 2670, "unit": "nM"}, {"measurement": "IC50", "setting": "main protease (NSP5); ref Su et al., 2021, Pan et al., 2023, Kuzikov et al., read-out: IC50, main protease (NSP5)", "value": 630, "unit": "nM"}, {"measurement": "IC50", "setting": "[2]", "value": 860, "unit": "nM"}]}, {"smiles": "O=C(/C=C/c1ccc(O)c(O)c1)O[C@H](Cc1ccc(O)c(O)c1)C(=O)O", "note": "[Rosmarinic acid, (2R)-3-(3,4-Dihydroxyphenyl)-2-[(E)-3-(3,4-dihydroxyphenyl)prop-2-enoyl]oxypropanoic acid]", "values": [{"measurement": "IC50", "setting": "[1]; Severe acute respiratory syndrome coronavirus 2, Vero C1008, read-out: IC50, infection assay (percentage of infected cells)", "value": 59300, "unit": "nM"}, {"measurement": "IC50", "setting": "main protease (NSP5); noncovalent binding to active site, ref Li et al., read-out: IC50, NSP5", "value": 2180, "unit": "nM"}]}]}
